Measurements taken from ChEMBL document CHEMBL1128780, “Inactivation of carboxypeptidase a by 2-benzyl-3,4-epithiobutanoic acid” (Bioorg Med Chem Lett, 1995).

How the values were obtained:
[1] = (§1) Inhibitory activity against Carboxypeptidase A (CPA)
[2] = as §1; remark: listed apart in the source

Row | SMILES | K inact [1] | Ki [2]
1 | O=C(O)[C@H](Cc1ccccc1)[C@H]1CS1 | 1.31 min⁻¹ | 94 µM
2 | O=C(O)[C@@H](Cc1ccccc1)[C@H]1CO1 | 1.11 min⁻¹ | 155 µM
3 | O=C(O)[C@H](Cc1ccccc1)[C@H]1CO1 (single isomer, unassigned) | 1.59 min⁻¹ | 86 µM
